# Target: Recombinant GST-Tie2 (Homo sapiens, UniProt Q02763)
# Experiment: Tie2 fluorescence polarization kinase activity assay (TIE2-FP)
# Type: biochemical
# Details: 200 μM ATP, activated enzyme; read-out: TIE2-FP pIC50 (converted)
# Method: Tie2 Fluorescence Polarization Kinase Activity Assay (TIE2-FP) Activation of Recombinant Tie2 Activation: Recombinant GST-Tie2 is activated by incubating the enzyme in 20 mM Tris-HCl, pH7.5, 12 mM MgCl2, 100 mM NaCl, 20 μM sodium vanidate, 1 mM DTT and 300 μM ATP at room temperature for 2 hours. The activation mixture is then passed through a NAP-25 desalting column (Pharmacia Biotech cat. no. 17-0852-02) to remove the free ATP. The activated enzyme is stored as aliquots at−80° C. in 20mM Tris-HCl, pH7.5 and 100 mM NaCl. Assay Conditions: The final assay conditions are 50 mM HEPES, pH7.5, 5% DMSO (when screening compounds), 200 μM ATP, 5mM MgCl2, 1 mM DTT, 50 μM sodium vanidate, 1 nM activated enzyme, and 200 μM peptide. IC50's of compounds are measured under subsaturating ATP (200 μM) and varing concentrations of activated Tie2 and peptide substrate (RFWKYEFWR-OH; MW 1873 Da, TFA salt). Panvera Anti-phosphotyrosine antibody (Cat#P2840) and PTK Green Tracer (Cat#P2842) are used to detect the phosphorylated peptide. Polarization is measured on a TECAN Polarion in 138-second cycles for 30 minutes at room temperature. IC50's are then determined from the % polarization using normal calculation methods. The IC50 values are converted to pIC50 values, i.e.,−log IC50 in Molar concentration.
# Recombinant GST-Tie2, sequence (Q02763 23-1124): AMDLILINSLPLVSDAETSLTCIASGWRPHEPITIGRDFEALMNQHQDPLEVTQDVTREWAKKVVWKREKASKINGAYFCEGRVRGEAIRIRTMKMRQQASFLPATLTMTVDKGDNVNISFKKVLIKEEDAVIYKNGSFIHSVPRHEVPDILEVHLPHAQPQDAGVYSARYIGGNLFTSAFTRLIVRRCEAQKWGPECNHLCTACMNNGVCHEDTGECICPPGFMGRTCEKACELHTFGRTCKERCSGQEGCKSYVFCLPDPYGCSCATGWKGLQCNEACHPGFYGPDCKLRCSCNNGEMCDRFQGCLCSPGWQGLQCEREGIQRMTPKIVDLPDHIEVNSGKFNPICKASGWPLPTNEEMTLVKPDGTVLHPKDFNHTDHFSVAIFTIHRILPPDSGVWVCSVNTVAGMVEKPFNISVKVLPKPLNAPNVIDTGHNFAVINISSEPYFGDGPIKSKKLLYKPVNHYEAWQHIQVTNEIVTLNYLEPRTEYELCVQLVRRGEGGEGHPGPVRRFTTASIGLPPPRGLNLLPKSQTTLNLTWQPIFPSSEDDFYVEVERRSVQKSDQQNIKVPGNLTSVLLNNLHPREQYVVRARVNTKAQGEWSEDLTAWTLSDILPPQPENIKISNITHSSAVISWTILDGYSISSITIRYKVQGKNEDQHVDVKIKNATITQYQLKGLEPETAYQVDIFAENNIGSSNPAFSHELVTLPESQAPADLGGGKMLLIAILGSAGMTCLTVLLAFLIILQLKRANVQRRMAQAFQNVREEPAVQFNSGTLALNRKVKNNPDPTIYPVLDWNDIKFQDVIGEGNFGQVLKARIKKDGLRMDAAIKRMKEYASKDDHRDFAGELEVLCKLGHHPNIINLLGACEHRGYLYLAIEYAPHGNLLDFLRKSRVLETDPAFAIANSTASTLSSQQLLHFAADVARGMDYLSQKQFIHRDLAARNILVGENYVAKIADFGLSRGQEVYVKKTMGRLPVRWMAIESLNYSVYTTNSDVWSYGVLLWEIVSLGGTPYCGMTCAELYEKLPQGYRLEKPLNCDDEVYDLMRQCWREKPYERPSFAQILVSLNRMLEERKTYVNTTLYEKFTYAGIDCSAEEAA
row,SMILES,IC50 [µM]
1,"CC(C)(C)n1nc(-c2ccc(NC(=O)Nc3cccc4ccccc34)cc2)c(C(N)=O)c1N [Example 20, 5-Amino-1-tert-butyl-3-[4-(3-naphthalen-1-yl-ureido)-phenyl]-1H-pyrazole-4-carboxylic acid amide]",0.1 to 1
2,"Cn1nc(-c2ccc(NC(=O)Nc3cccc(C(F)(F)F)c3)cc2)c(C(N)=O)c1N [Example 9, 5-Amino-1-methyl-3-{4-[3-(3-trifluoromethyl-phenyl)-ureido]-phenyl}-1H-pyrazole-4-carboxylic acid amide]",< 0.1
3,"COc1ccc(NC(=O)Nc2ccc(-c3nn(C)c(N)c3C(N)=O)cc2)c(OC)c1 [Example 16, 5-amino-3-{4-[3-(2,4-dimethoxy-phenyl)-ureido]-phenyl}-1-methyl-1H-pyrazole-4-carboxylic acid amide]",1 to 10
4,"CC(C)(C)n1nc(-c2ccc(NC(=O)Nc3ccc(Oc4ccccc4)cc3)cc2)c(C(N)=O)c1N [Example 32, 5-Amino-1-tert-butyl-3-{4-[3-(4-phenoxy-phenyl)-ureido]-phenyl}-1H-pyrazole-4-carboxylic acid amide]",0.1 to 1
5,"Cc1cccc(NC(=O)Nc2ccc(-c3nn(C(C)(C)C)c(N)c3C(N)=O)cc2)c1 [Example 29, 5-Amino-1-tert-butyl-3-[4-(3-m-tolyl-ureido)-phenyl]-1H-pyrazole-4-carboxylic acid amide]",< 0.1
6,"Cn1nc(-c2ccc(NC(=O)Nc3ccc4ccccc4c3)cc2)c(C(N)=O)c1N [Example 5, 5-Amino-1-methyl-3-[4-(3-naphthalen-2-yl-ureido)-phenyl]-1H-pyrazole-4-carboxylic acid amide]",0.1 to 1
7,"CC(C)(C)n1nc(-c2ccc(NC(=O)Nc3cccc(Cl)c3)cc2)c(C(N)=O)c1N [Example 21, 5-Amino-1-tert-butyl-3-{4-[3-(3-chloro-phenyl)-ureido]-phenyl}-1H-pyrazole-4-carboxylic acid amide]",< 0.1
8,"Cn1nc(-c2ccc(NC(=O)Nc3cc(F)ccc3F)cc2)c(C(N)=O)c1N [Example 15, 5-Amino-3-{4-[3-(2,5-difluoro-phenyl)-ureido]-phenyl}-1-methyl-1H-pyrazole-4-carboxylic acid amide]",1 to 10
9,"Cn1nc(-c2ccc(NC(=O)Nc3cc(C(F)(F)F)ccc3F)cc2)c(C(N)=O)c1N [Example 2, 5-Amino-3-{4-[3-(2-fluoro-5-trifluoromethyl-phenyl)-ureido]-phenyl}-1-methyl-1H-pyrazole-4-carboxylic acid amide]",< 0.1
10,"NC(=O)c1c(-c2ccc(NC(=O)Nc3cc(C(F)(F)F)ccc3F)cc2)n[nH]c1N [Example 33, 5-Amino-3-{4-[3-2-(fluoro-5-trifluoromethyl-phenyl)-ureido]-phenyl}-1H-pyrazole-4-carboxylic acid amide]",< 0.1
11,"CC(C)(C)n1nc(-c2ccc(NC(=O)Nc3ccc4c(c3)OCO4)cc2)c(C(N)=O)c1N [Example 27, 5-Amino-3-[4-(3-benzo[1,3]dioxol-5-yl-ureido)-phenyl]-1-tert-butyl-1H-pyrazole-4-carboxylic acid amide]",0.1 to 1
12,"Cn1nc(-c2ccc(NC(=O)Nc3c(F)cccc3F)cc2)c(C(N)=O)c1N [Example 11, 5-Amino-3-{4-[3-(2,6-difluoro-phenyl)-ureido]-phenyl}-1-methyl-1H-pyrazole-4-carboxylic acid amide]",> 10
13,"Cn1nc(-c2ccc(NC(=O)Nc3ccc(Oc4ccccc4)cc3)cc2)c(C(N)=O)c1N [Example 17, 5-Amino-1-methyl-3-{4-[3-(4phenoxy-phenyl)-ureido]-phenyl}-1H-pyrazole-4-carboxylic acid amide]",0.1 to 1
14,"CC(C)(C)n1nc(-c2ccc(NC(=O)Nc3cc(F)ccc3F)cc2)c(C(N)=O)c1N [Example 30, 5-Amino-1-tert-butyl-3-{4-[3-(2,5-difluoro-phenyl)-ureido]-phenyl}-1H-pyrazole-4-carboxylic acid amide]",0.1 to 1
15,"CC(C)(C)n1nc(-c2ccc(NC(=O)Nc3cc(Cl)ccc3Cl)cc2)c(C(N)=O)c1N [Example 22, 5-Amino-1-tert-butyl-3-{4-[3-(2,5-dichloro-phenyl)-ureido]-phenyl}-1H-pyrazole-4-carboxylic acid amide]",0.1 to 1
16,"Cn1nc(-c2ccc(NC(=O)Nc3ccc4c(c3)OCO4)cc2)c(C(N)=O)c1N [Example 12, 5-Amino-3-[4-(3-benzo[1,3]dioxol-5-yl-ureido)-phenyl]-1-methyl-1H-pyrazole-4-carboxylic acid amide]",1 to 10

row,SMILES,IC50 [µM]
1,"CC(C)(C)n1nc(-c2ccc(NC(=O)Nc3cc(C(F)(F)F)ccc3Cl)cc2)c(C(N)=O)c1N [Example 18, 5-Amino-1-tert-butyl-3-{4-[3-(2-chloro-5-trifluoromethyl-phenyl)-ureido]-phenyl}-1H-pyrazole-4-carboxylic acid amide]",< 0.1
2,"CC(C)(C)n1nc(-c2ccc(NC(=O)Nc3cc(C(F)(F)F)cc(C(F)(F)F)c3)cc2)c(C(N)=O)c1N [Example 19, 5-Amino-3-{4-[3-(bis-3,5-trifluoromethyl-phenyl)-ureido]-phenyl}-1-tert-butyl-1H-pyrazole-4-carboxylic acid amide]",< 0.1
3,"CC(C)(C)n1nc(-c2ccc(NC(=O)Nc3ccc(-c4ccccc4)cc3)cc2)c(C(N)=O)c1N [Example 25, 5-Amino-3-[4-(3-biphenyl-4-yl-ureido)-phenyl]-1-tert-butyl-1H-pyrazole-4-carboxylic acid amide]",0.1 to 1
4,"Cn1nc(-c2ccc(NC(=O)Nc3ccc(-c4ccccc4)cc3)cc2)c(C(N)=O)c1N [Example 10, 5-Amino-3-[4-(3-biphenyl4-yl-ureido)-phenyl]-1-methyl-1H-pyrazole-4-carboxylic acid amide]",0.1 to 1
5,"Cn1nc(-c2ccc(NC(=O)Nc3cc(C(F)(F)F)ccc3Cl)cc2)c(C(N)=O)c1N [Example 3, 5-Amino-3-{4-[3-(2-chloro-5-trifluoromethyl-phenyl)-ureido]-phenyl}-1-methyl-1H-pyrazole-4-carboxylic acid amide]",< 0.1
6,"Cn1nc(-c2ccc(NC(=O)Nc3cc(Cl)ccc3Cl)cc2)c(C(N)=O)c1N [Example 7, 5-Amino-3-{4-[3-(2,5-dichloro-phenyl)-ureido]-phenyl}-1-methyl-1H-pyrazole-4-carboxylic acid amide]",< 0.1
7,"Cn1nc(-c2ccc(NC(=O)Nc3cc(C(F)(F)F)cc(C(F)(F)F)c3)cc2)c(C(N)=O)c1N [Example 4, 5-Amino-3-{4-[3-(bis-3,5-trifluoromethyl-phenyl)-ureido]-phenyl}-1-methyl-1H-pyrazole-4-carboxylic acid amide]",0.1 to 1
8,"Cc1ccccc1NC(=O)Nc1ccc(-c2nn(C)c(N)c2C(N)=O)cc1 [Example 13, 5-Amino-1-methyl-3-[4-(3-o-tolyl-ureido)-phenyl]-1H-pyrazole-4-carboxylic acid amide]",1 to 10
9,"CC(C)(C)n1nc(-c2ccc(NC(=O)Nc3cccc(C(F)(F)F)c3)cc2)c(C(N)=O)c1N [Example 24, 5-Amino-1-tert-butyl-3-{4-[3-(3-trifluoromethyl-phenyl)-ureido]-phenyl}-1H-pyrazole-4-carboxylic acid amide]",< 0.1
10,"Cn1nc(-c2ccc(NC(=O)Nc3cccc4ccccc34)cc2)c(C(N)=O)c1N [Example 8, 5-Amino-1-methyl-3-[4-(3-naphthalen-1-yl-ureido)-phenyl]-1H-pyrazole-4-carboxylic acid amide]",1 to 10
11,"Cc1cccc(NC(=O)Nc2ccc(-c3nn(C)c(N)c3C(N)=O)cc2)c1 [Example 14, 5-Amino-1-methyl-3-[4-(3-m-tolyl-ureido)-phenyl]-1H-pyrazole-4-carboxylic acid amide]",0.1 to 1
12,"COc1ccc(NC(=O)Nc2ccc(-c3nn(C(C)(C)C)c(N)c3C(N)=O)cc2)c(OC)c1 [Example 31, 5-Amino-1-tert-butyl-3-{4-[3-(2,4-dimethoxyo-phenyl)-ureido]-phenyl}-1H-pyrazole-4-carboxylic acid amide]",1 to 10
13,"Cn1nc(-c2ccc(NC(=O)Nc3cccc(Cl)c3)cc2)c(C(N)=O)c1N [Example 6, 5-Amino-3-{4-[3-(3-chloro-phenyl)-ureido]-phenyl}-1-methyl-1H-pyrazole-4-carboxylic acid amide]",1 to 10
14,"CC(C)(C)n1nc(-c2ccc(NC(=O)Nc3c(F)cccc3F)cc2)c(C(N)=O)c1N [Example 26, 5-Amino-1-tert-butyl-3-{4-[3-(2,6-difluoro-phenyl)-ureido]-phenyl}-1H-pyrazole-4-carboxylic acid amide]",1 to 10
15,"CC(C)(C)n1nc(-c2ccc(NC(=O)Nc3ccc4ccccc4c3)cc2)c(C(N)=O)c1N [Example 23, 5-Amino-1-tert-butyl-3-[4-(3-naphthalen-2-yl-ureido)-phenyl]-1H-pyrazole-4-carboxylic acid amide]",< 0.1
